Tests used:
HIV-1 = HIV-1 latent infection of resting CD4 T cells, viral replication assay (p24 ELISA) after anti-CD3/CD28 activation; type: cell-based, HIV-1NL4-3; details: for HIV replication in resting T cells: 5 minutes before infection
Method: Virus stocks of the HIV-1NL4-3 (Adachi et al. J Virol 59(2), 284-91 (1986)) were prepared by transfection of HeLa cells with cloned proviral DNA as described in Wu and Marsh (2001). Supernatant was harvested at 48 hours, and filtered through a 0.45 μm nitrocellulose membrane. Virus titer (TCID50) was measured by infection of a Rev-CEM indicator cell line which was constructed through stable integration of a Rev-dependent GFP expression lentiviral vector into CEM-SS. […] For infection of resting CD4 T cells, viruses were first titrated to determine minimal levels detectable by p24 ELISA in replication assays described below. Unless specified, for most replication assays, 10^3.5 to 10^4.5 TCID50 units of HIV-1 were used to infect 10^6 cells. For infection procedure, CD4 T cells were incubated with the virus for 2 hours, then washed twice with medium to remove unbound virus. Infected cells were resuspended into fresh RPMI 1604 medium supplemented with 10% heat-inactivated fetal bovine serum, penicillin (50 U/ml) and streptomycin (50 μg/ml) at a density of 10^6 per ml and incubated for 5 days without stimulation. Cells were activated at day 5 with anti-CD3/CD28 magnetic beads at 4 beads per cells. For viral replication assay, 10% of infected cells were taken at 1, 3, 5, 6, 7, 8, 9 days post infection. Cells were pelleted and the supernatant was saved for p24 ELISA. Levels of p24 in the supernatant were measured by using Coulter HIV-1 p24 Assay Kit (Beckman Coulter, Inc. Miami, Fla.). Plates were kinetically read using ELx808 automatic microplate reader (Bio-Tek Instruments, Inc. Winooski, Vt.) at 630 nm.
Resting CD4 T cells were treated with pertussis toxin (Sigma, St. Louis, Mo.) at a final concentration of 100 ng/ml for 2 hours, then infected with HIV-1. Following infection, cells were washed 2 to 3 times to remove cell-free virus and the inhibitor. Cells were treated with Jasplakinolide (Molecular Probes, Eugene, Oreg.) for 1 to 2 hours or Latrunculin A (Biomol, Plymouth Meeting, Pa.) for 5 minutes at various concentrations, washed twice with medium, then infected with HIV-1. Following infection, cells were washed twice to remove cell free virus. Cells were treated with 200 nM of Staurosporine (Biomol, Plymouth Meeting, Pa.) for 2 hours, then infected with HIV-1. Following infection, cells were washed twice to remove cell-free virus and the inhibitor.
Resting CD4 T cells were treated with S3 or Q104 for I to 2 hours, then infected with HIV-1. Following infection, cells were washed 2 to 3 times to remove cell-free virus and the peptides.
Effects of Jas on LFA-1 activation also were tested. Jas treated or untreated resting T cells were activated by anti-CD3/CD28 bead and stained with human ICAM-1/Fc chimera and analyzed by flow cytometer. The effects of Jas on IL-2 secretion also were measured. […] Cells were treated with Jas for 2 hours, washed, infected with HIV-1 for 5 days, then activated by anti-CD3/CD28 bead. […] Following infection, cellular DNA was PCR amplified for viral late DNA and β-actin pseudogene. Cells were pre-activated with PHA plus IL-2, then treated and infected as in FIG. 3A. […] CEM-SS cell were treated and infected as in FIG. 3A.

F-actin = assay: FITC-phalloidin staining of F-actin and flow cytometry in resting CD4 T cells; type: cell-based, human
Method: Cells were stimulated with HIV-1 or gp120 IIIB (Microbix Biosystems Inc. Toronto, Ontario). F-actin staining using FITC-labeled phalloidin (Sigma, St. Louis, Mo.) was carried out according to the manufacture's recommendation with minor modifications. Briefly, each staining was carried out by using 10^6 cells. Cells were pelleted, fixed and permeabilized with cytoperm/cytofix (BD biosciences, San Diego, Calif.) for 20 min on ice, followed by stained with 5 μl of 0.3 uM FITC-labeled phalloidin for 30 min at 4° C. After wash, cells were resuspended in 1% paraformaldehyde and analyzed on FACSCalibur (BD Biosciences, San Jose, Calif.)

IL-2 secretion = assay: IL-2 ELISA of cell culture supernatant after T cell activation; type: cell-based, human; details: 200 nM, treated, incubated and activated
Method: IL-2 release into cell culture supernatant was detected by a human IL-2 ELISA development kit (PeproTech, Rocky Hill, N.J.) according to the manufacture's instruction. Briefly, each well of a plate was coated with 100 μl of capture antibody (1 μg/ml) and incubated overnight at room temperature, then washed and blocked with 300 μl of blocking solution for one hour at room temperature. Samples in plates were incubated for 1 hour at 37° C., then washed and incubated with 100 μl of detection antibody (0.5 μg/ml) for 1 hour at 37° C. Plates were washed and incubated with 100 μl of the avidin-peroxidase conjugate (1:2000 dilution) for 30 minutes at room temperature followed by washing and incubation with 100 μl of Tetramethylbenzidine (TMB) substrate buffer. Plates were kinetically read using ELx808 automatic microplate reader (Bio-Tek Instruments, Inc. Winooski, Vt.) at 630 nm.

cofilin = assay: Cofilin and phospho-cofilin western blot in resting CD4 T cells; type: cell-based, human
Method: For activation of resting CD4 T cells with PHA (3 μg/ml) (Sigma, St. Louis, Mo.) plus IL-2 (100 U/ml) (Roche Applied Science, Indianapolis, Ind.), cells were cultured in the presence of these agents for 1 day.
Briefly, 10^6 of CD4 T cells were lysed in NuPAGE LDS Sample Buffer (Invitrogen, Carlsbad, Calif.) followed by sonication. Samples were heated at 70° C. for 10 minutes before loading, then separated by SDS-PAGE and transferred onto nitrocellulose membranes (Invitrogen, Carlsbad, Calif.). The membranes were washed in TBS for 5 minutes and then blocked for 30 minutes at room temperature with Starting Block blocking buffer (Pierce, Rockford, Ill.). The blots were incubated with either a rabbit anti-cofilin antibody (1:1000 dilution) (Cell Signaling, Danvers, Mass.) or a rabbit anti-phospho-cofilin (ser3) antibody (1:1000 dilution) (Cell Signaling, Danvers, Mass.) diluted in 5% BSA-TBST and rocked at room temperature for 1 hour. The blots were washed three times for 15 minutes each and then incubated with a goat anti-rabbit horseradish peroxidase-conjugated antibodies (KPL, Inc. Gaithersburg, Md.) diluted in 2.5% skim milk-TBST (1:1000) for 1 hour. […] Images were captured with a CCD camera (Fluor Chem 9900 Imaging Systems) (Alpha Innotech, San Leandro, Calif.) and analyzed and processed by NIH-Image Version 163.

LIMK1 = target: T1, LIMK1 (Homo sapiens, UniProt P53667); assay: In vitro LIMK1 kinase assay with GST-tagged recombinant human cofilin; type: biochemical
T1 construct: purchased Upstate Biotechnologies, Lake Placid, N.Y
T1 sequence (P53667 whole entry, species assumed): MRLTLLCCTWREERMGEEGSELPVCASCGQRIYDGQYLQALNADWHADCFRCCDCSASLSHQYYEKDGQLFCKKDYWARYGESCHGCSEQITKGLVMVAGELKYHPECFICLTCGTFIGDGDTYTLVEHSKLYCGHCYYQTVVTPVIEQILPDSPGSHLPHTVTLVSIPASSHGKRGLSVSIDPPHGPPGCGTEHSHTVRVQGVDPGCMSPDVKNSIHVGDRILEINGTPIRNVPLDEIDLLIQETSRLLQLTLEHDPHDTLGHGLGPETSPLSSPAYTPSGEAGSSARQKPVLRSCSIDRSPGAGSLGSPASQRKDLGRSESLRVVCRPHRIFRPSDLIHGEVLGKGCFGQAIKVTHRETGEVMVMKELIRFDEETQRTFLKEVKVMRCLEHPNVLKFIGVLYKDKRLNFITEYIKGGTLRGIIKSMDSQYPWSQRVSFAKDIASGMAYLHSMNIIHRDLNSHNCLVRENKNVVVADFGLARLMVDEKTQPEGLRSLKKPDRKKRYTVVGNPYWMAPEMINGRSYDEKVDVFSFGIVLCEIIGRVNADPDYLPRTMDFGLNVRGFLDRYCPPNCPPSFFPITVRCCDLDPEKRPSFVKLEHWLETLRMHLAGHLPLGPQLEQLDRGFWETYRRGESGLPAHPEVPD
Method: LIMK1 Kinase assays were performed using purified LIMK1 and GST-tagged recombinant human cofilin (Upstate Biotechnologies, Lake Placid, N.Y.) according to the manufacture's recommendation with minor modifications. Briefly, 18 μg of recombinant cofilin was incubated in 1× Kinase reaction buffer ([…], pH7.0, 200 μM EDTA) in the presence or absence of Staurosporine (200 nM) or the S3, Q104 peptides. LIMK1 was serially diluted in dilution buffer (20 mM MOPS-NaOH pH 7.0, 1 mM EDTA, 0.01% Brij-35, 5% glycerol, 0.1% 2-ME, 1 mg/ml BSA), then added into the reaction along with the ATP buffer (10 mM Magnesium Acetate, 100 μM ATP). The reaction was incubated for 15 minutes at 30° C. with constant agitation. The reaction was stopped by adding 25% (V/V) of 4×LDS sample buffer for SDS-PAGE and heated for 10 minutes at 70° C. Cofilin phosphorylation was analyzed by SDS-PAGE and western blotting using a rabbi anti-phospho-cofilin (ser3) antibody (Cell Signaling, Danvers, Mass.) as described in Example 10.

HIV = details: Doranz et al. 1999; cited from earlier work
[1] = 200 nM added during T cell activation at day 5

## C/C1=C/C(=O)O[C@@H]2C[C@@H](CC[C@H](C)/C=C\C=C\CC1)O[C@@](O)([C@@H]1CSC(=O)N1)C2 [Lat-A, Latrunculin A]
HIV-1; 25 nM, 5 minutes
  HIV replication in resting T cells, treatment before vs after infection: enhancement was seen only in cells pretreated with Lat-A prior to infection
HIV-1; 25 nM
  HIV replication in resting T cells: Enhanced HIV replication
HIV-1; 250 nM
  HIV replication in resting T cells: donor-dependent variations from enhancement to inhibition
HIV-1; 2.5 μM
  HIV replication in resting T cells: inhibited viral replication in all donors
F-actin; 25 nM, 5 min
  actin depolymerization: actin depolymerization to an extent similar to that induced by HIV-1
F-actin; 2.5 μM to 250 nM, 5 min
  actin depolymerization: dramatic actin depolymerization

## CN[C@@H]1C[C@H]2O[C@@](C)([C@@H]1OC)n1c3ccccc3c3c4c(c5c6ccccc6n2c5c31)C(=O)NC4 [staurosporine]
IL-2 secretion
  IL-2 secretion: slight inhibition
HIV-1; [1]
  HIV-1 replication: completely abolished HIV-1 replication
  T cell activation: inhibited T cell activation
HIV-1; 200 nM briefly before infection
  HIV replication in resting CD4 T cells: dramatic enhancement
F-actin; 200 nM
  actin depolymerization: actin depolymerization also was observed
cofilin; 200 nM, no stimulation
  cofilin phosphorylation in resting CD4 T cells: gradual dephosphorylation and activation of cofilin
LIMK1; 200 nM
  LIMK1 inhibition compared with S3 peptide: much stronger
  phosphorylation of cofilin by LIMK1: directly inhibited

## S3: Synthetic peptide MASGVAVSDGVIKVFN (SEQ ID NO: 3), N-terminal 16 amino acids of human cofilin
HIV-1; pre-treated 2 hours, then infected
  viral replication in resting CD4 T cells: enhanced viral replication
LIMK1; peptide
  cofilin phosphorylation by LIMK1: inhibited cofilin phosphorylation

## SDF-1: the natural ligand for CXCR4
F-actin; 50 ng/ml
  F-actin change: rapid actin polymerization

## pertussis toxin [P.T]
HIV-1; 100 ng/ml for 2 hours before infection
  viral replication in resting T cells: inhibited viral replication
F-actin; 100 ng/ml for 2 hours, then HIV-1
  inhibition of viral induced actin depolymerization: completely inhibited
cofilin; pretreated, then infected with HIV-1
  inhibition of HIV-1 induced cofilin activation: Complete inhibition
HIV
  viral replication in CXCR4 transfected U87-MG cells: did not affect viral replication
